{
  "source": "patent US20080031982A1",
  "about": "(Metaproteomics, LLC, priority 2006, published 2008)",
  "experiment_in_all_cases": "KinaseProfiler Assay",
  "key": {"Fes": {"biological_target": "Fes (Homo sapiens, UniProt P07332)", "sequence (P07332 whole entry)": "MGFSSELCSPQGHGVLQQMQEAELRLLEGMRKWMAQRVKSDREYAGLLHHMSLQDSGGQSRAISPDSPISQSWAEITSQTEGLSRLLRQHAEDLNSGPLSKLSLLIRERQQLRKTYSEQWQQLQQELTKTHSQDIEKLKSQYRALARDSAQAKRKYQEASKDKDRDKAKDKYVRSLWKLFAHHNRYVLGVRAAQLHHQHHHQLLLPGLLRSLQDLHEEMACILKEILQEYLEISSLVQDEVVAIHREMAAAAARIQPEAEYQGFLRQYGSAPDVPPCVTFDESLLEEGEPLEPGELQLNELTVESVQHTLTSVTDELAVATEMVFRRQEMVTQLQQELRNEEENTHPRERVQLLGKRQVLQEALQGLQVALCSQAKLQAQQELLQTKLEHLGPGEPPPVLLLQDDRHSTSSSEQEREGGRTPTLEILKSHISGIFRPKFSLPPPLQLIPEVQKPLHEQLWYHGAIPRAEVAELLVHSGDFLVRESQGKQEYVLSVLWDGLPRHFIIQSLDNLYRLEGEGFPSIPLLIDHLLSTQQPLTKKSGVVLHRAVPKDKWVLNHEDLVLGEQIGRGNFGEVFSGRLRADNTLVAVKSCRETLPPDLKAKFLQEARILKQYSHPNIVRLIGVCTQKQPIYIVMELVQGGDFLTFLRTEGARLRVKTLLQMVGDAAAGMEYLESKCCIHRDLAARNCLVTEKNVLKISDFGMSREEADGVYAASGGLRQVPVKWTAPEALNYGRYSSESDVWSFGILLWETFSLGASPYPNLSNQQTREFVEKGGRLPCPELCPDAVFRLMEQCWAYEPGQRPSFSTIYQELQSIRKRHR"}, "CDK9/cyclin T1": {"biological_target": "CDK9/cyclin T1 (Homo sapiens, UniProt P50750)"}, "Ron": {"biological_target": "Ron (Homo sapiens, UniProt Q04912)"}, "EphA2": {"biological_target": "EphA2 (Homo sapiens, UniProt P29317)", "sequence (P29317 24-976)": "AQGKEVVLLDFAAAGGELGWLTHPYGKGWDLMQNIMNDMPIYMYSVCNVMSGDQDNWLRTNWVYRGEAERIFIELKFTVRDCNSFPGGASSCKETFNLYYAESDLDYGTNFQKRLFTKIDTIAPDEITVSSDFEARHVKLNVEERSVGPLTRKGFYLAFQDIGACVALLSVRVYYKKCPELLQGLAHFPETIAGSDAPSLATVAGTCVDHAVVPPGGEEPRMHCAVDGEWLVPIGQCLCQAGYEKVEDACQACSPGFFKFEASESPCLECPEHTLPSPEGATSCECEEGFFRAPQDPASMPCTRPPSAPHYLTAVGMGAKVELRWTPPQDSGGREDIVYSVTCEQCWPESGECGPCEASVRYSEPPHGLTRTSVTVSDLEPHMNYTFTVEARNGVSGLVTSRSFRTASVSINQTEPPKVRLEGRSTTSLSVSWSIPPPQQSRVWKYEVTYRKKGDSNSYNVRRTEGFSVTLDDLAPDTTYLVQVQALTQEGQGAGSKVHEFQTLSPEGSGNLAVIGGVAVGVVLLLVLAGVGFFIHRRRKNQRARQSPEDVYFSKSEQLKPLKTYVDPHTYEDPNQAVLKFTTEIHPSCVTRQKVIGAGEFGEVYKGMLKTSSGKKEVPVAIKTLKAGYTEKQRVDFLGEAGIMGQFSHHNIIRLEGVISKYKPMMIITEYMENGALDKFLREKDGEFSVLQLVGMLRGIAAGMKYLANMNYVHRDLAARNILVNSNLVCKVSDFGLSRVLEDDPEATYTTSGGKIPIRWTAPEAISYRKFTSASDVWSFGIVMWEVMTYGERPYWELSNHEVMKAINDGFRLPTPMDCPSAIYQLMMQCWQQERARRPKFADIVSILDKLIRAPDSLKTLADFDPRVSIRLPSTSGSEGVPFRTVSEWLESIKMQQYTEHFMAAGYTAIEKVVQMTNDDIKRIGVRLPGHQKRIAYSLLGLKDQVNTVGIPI"}, "CDK5/p35": {"biological_target": "CDK5/p35 (Homo sapiens, UniProt Q00535)", "sequence (Q00535 whole entry)": "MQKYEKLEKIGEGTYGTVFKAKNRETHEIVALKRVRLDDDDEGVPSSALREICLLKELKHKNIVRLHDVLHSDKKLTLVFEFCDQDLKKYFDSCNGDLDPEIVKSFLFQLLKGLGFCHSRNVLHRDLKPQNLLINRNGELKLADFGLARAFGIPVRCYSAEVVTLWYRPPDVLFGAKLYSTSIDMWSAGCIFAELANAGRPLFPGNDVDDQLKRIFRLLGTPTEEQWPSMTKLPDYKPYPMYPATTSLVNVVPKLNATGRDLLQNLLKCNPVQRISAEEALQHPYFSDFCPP", "sequence (Q15078 whole entry partner)": "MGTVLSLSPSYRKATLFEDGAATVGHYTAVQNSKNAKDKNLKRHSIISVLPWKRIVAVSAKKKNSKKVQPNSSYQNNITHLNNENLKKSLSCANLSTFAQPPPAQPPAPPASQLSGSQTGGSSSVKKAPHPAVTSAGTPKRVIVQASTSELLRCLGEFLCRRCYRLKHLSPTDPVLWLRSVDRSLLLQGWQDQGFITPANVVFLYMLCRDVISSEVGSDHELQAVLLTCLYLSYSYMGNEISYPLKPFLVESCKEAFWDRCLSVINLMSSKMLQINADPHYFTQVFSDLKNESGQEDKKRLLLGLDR"}, "TrkA": {"biological_target": "TrkA (Homo sapiens, UniProt P04629)", "sequence (P04629 33-796)": "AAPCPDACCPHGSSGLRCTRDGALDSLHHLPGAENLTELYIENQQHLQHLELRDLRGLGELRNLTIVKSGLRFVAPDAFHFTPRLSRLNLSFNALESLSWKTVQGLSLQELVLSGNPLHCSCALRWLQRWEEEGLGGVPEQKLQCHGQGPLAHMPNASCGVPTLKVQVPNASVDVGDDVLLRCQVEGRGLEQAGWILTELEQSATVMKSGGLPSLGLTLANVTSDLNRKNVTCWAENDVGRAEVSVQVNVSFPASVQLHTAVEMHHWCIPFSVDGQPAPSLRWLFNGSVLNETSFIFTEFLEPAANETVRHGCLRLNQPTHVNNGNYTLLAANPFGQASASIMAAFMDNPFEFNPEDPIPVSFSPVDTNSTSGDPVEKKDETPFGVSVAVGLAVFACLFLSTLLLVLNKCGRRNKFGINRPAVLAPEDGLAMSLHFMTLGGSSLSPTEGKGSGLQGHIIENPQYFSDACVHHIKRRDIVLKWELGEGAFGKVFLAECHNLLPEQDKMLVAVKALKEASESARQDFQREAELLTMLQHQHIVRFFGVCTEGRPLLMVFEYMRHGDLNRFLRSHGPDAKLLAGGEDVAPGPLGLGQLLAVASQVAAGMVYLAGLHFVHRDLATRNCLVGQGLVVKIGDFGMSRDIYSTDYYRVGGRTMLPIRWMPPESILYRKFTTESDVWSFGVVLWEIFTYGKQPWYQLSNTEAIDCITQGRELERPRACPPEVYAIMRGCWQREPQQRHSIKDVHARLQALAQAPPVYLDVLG"}, "TSSK2": {"biological_target": "T1, TSSK2 (Homo sapiens, UniProt Q96PF2)", "T1 sequence (Q96PF2 1-358)": "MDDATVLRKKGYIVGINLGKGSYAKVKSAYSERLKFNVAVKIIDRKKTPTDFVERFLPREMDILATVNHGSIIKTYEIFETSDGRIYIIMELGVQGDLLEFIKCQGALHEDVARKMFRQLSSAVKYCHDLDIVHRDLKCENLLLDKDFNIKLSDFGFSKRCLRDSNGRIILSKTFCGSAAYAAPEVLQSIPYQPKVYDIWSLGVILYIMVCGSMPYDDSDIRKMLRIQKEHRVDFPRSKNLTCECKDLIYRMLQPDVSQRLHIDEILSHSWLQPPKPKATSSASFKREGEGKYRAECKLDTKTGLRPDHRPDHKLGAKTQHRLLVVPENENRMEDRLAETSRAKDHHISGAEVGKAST"}, "MSK2": {"biological_target": "MSK2 (Homo sapiens, UniProt O75676)", "sequence (O75676 whole entry)": "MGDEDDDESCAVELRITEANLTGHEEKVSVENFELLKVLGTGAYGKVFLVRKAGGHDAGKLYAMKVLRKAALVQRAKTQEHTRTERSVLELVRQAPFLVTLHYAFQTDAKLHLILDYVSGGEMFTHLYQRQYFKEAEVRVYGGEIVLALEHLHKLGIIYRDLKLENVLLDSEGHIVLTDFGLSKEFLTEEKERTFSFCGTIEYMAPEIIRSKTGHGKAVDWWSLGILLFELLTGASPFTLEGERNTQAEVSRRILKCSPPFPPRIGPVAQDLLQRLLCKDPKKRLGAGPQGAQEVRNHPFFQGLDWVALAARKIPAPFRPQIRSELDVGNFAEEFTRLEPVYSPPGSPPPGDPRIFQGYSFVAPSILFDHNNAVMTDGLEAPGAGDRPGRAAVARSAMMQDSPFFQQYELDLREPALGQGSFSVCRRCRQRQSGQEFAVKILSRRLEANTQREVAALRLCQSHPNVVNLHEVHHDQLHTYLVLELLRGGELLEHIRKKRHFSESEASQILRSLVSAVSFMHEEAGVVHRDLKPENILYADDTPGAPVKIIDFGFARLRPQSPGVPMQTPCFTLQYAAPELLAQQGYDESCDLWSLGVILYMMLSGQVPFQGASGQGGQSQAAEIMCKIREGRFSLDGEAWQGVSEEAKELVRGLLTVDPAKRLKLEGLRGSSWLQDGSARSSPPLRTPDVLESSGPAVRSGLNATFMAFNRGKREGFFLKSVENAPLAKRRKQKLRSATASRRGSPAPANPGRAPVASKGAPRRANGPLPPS"}, "Syk": {"biological_target": "Syk (Homo sapiens, UniProt P43405)"}, "IR": {"biological_target": "IR (Homo sapiens, UniProt P06213)"}, "CDK6/cyclinD3": {"biological_target": "CDK6/cyclinD3 (Homo sapiens, UniProt Q00534)"}, "Lyn": {"test_system": "Lyn"}, "CDK2/cyclinA": {"biological_target": "CDK2/cyclinA (Homo sapiens, UniProt P24941)"}, "MSSK1": {"biological_target": "MSSK1 (Homo sapiens, UniProt Q9UPE1)"}, "PKA": {"biological_target": "PKA (Homo sapiens, UniProt P17612)"}, "Fer": {"biological_target": "Fer (Homo sapiens, UniProt P16591)", "sequence (P16591 whole entry)": "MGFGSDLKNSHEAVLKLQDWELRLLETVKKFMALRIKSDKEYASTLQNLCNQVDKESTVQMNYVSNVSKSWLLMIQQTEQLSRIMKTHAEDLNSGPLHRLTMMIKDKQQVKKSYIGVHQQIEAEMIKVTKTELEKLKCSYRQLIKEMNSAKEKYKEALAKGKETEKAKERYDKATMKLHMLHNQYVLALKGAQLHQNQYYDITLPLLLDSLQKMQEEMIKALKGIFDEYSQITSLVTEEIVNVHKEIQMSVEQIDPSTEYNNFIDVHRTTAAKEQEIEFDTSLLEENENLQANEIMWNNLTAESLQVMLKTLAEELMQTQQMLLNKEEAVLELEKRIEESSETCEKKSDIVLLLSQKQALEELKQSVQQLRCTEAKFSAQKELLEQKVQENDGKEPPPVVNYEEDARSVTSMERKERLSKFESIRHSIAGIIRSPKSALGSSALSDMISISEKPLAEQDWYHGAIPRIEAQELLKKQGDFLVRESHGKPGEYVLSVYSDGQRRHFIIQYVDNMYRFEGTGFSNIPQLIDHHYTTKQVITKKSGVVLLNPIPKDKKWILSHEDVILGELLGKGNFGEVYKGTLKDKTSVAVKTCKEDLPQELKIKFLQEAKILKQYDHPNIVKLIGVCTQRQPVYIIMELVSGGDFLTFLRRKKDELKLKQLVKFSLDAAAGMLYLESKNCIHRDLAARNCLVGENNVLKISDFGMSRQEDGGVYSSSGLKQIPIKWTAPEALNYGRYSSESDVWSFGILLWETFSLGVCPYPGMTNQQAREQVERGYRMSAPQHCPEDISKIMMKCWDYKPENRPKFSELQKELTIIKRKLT"}, "HIPK2": {"biological_target": "HIPK2 (Homo sapiens, UniProt Q9H2X6)"}},
  "data": [
    {"compound": "COc1cc(O)c(CC=C(C)C)c(O)c1C(=O)/C=C/c1ccc(O)cc1", "note": "[Xanthohumol, xanthohumol]", "values": [
      {"measurement": "Kinase activity, % of Control", "setting": "Fes; 1 ug/ml", "value": "131 % of Control"},
      {"measurement": "Kinase activity, % of Control", "setting": "Fes; 5 ug/ml", "value": "106 % of Control"},
      {"measurement": "Kinase activity, % of Control", "setting": "Fes; 25 ug/ml", "value": "102 % of Control"},
      {"measurement": "Kinase activity, % of Control", "setting": "Fes; 50 ug/ml", "value": "26 % of Control"},
      {"measurement": "Kinase activity, % of Control", "setting": "CDK9/cyclin T1; 1 ug/ml", "value": "110 % of Control"},
      {"measurement": "Kinase activity, % of Control", "setting": "CDK9/cyclin T1; 5 ug/ml", "value": "107 % of Control"},
      {"measurement": "Kinase activity, % of Control", "setting": "CDK9/cyclin T1; 25 ug/ml", "value": "45 % of Control"},
      {"measurement": "Kinase activity, % of Control", "setting": "CDK9/cyclin T1; 50 ug/ml", "value": "31 % of Control"},
      {"measurement": "Kinase activity, % of Control", "setting": "Ron; 1 ug/ml", "value": "135 % of Control"},
      {"measurement": "Kinase activity, % of Control", "setting": "Ron; 5 ug/ml", "value": "127 % of Control"},
      {"measurement": "Kinase activity, % of Control", "setting": "Ron; 25 ug/ml", "value": "60 % of Control"},
      {"measurement": "Kinase activity, % of Control", "setting": "Ron; 50 ug/ml", "value": "69 % of Control"},
      {"measurement": "Kinase activity, % of Control", "setting": "EphA2; 1 ug/ml", "value": "124 % of Control"},
      {"measurement": "Kinase activity, % of Control", "setting": "EphA2; 25 ug/ml", "value": "121 % of Control"},
      {"measurement": "Kinase activity, % of Control", "setting": "EphA2; 50 ug/ml", "value": "52 % of Control"},
      {"measurement": "Kinase activity, % of Control", "setting": "CDK5/p35; 1 ug/ml", "value": "103 % of Control"},
      {"measurement": "Kinase activity, % of Control", "setting": "CDK5/p35; 5 ug/ml", "value": "102 % of Control"},
      {"measurement": "Kinase activity, % of Control", "setting": "CDK5/p35; 25 ug/ml", "value": "41 % of Control"},
      {"measurement": "Kinase activity, % of Control", "setting": "CDK5/p35; 50 ug/ml", "value": "44 % of Control"},
      {"measurement": "Kinase activity, % of Control", "setting": "TrkA; 1 ug/ml", "value": "36 % of Control"},
      {"measurement": "Kinase activity, % of Control", "setting": "TrkA; 5 ug/ml", "value": "19 % of Control"},
      {"measurement": "Kinase activity, % of Control", "setting": "TrkA; 25 ug/ml", "value": "8 % of Control"},
      {"measurement": "Kinase activity, % of Control", "setting": "TrkA; 50 ug/ml", "value": "3 % of Control"},
      {"measurement": "Kinase activity, % of Control", "setting": "TSSK2; 1 ug/ml", "value": "102 % of Control"},
      {"measurement": "Kinase activity, % of Control", "setting": "TSSK2; 5 ug/ml", "value": "95 % of Control"},
      {"measurement": "Kinase activity, % of Control", "setting": "TSSK2; 25 ug/ml", "value": "61 % of Control"},
      {"measurement": "Kinase activity, % of Control", "setting": "TSSK2; 50 ug/ml", "value": "48 % of Control"},
      {"measurement": "Kinase activity, % of Control", "setting": "MSK2; 1 ug/ml", "value": "126 % of Control"},
      {"measurement": "Kinase activity, % of Control", "setting": "MSK2; 5 ug/ml", "value": "61 % of Control"},
      {"measurement": "Kinase activity, % of Control", "setting": "MSK2; 25 ug/ml", "value": "8 % of Control"},
      {"measurement": "Kinase activity, % of Control", "setting": "MSK2; 50 ug/ml", "value": "19 % of Control"},
      {"measurement": "Kinase activity, % of Control", "setting": "Syk; 1 ug/ml", "value": "95 % of Control"},
      {"measurement": "Kinase activity, % of Control", "setting": "Syk; 5 ug/ml", "value": "60 % of Control"},
      {"measurement": "Kinase activity, % of Control", "setting": "Syk; 25 ug/ml", "value": "32 % of Control"},
      {"measurement": "Kinase activity, % of Control", "setting": "Syk; 50 ug/ml", "value": "17 % of Control"},
      {"measurement": "Kinase activity, % of Control", "setting": "IR; 1 ug/ml", "value": "120 % of Control"},
      {"measurement": "Kinase activity, % of Control", "setting": "IR; 5 ug/ml", "value": "108 % of Control"},
      {"measurement": "Kinase activity, % of Control", "setting": "IR; 50 ug/ml", "value": "103 % of Control"},
      {"measurement": "Kinase activity, % of Control", "setting": "CDK6/cyclinD3; 1 ug/ml", "value": "110 % of Control"},
      {"measurement": "Kinase activity, % of Control", "setting": "CDK6/cyclinD3; 5 ug/ml", "value": "79 % of Control"},
      {"measurement": "Kinase activity, % of Control", "setting": "CDK6/cyclinD3; 25 ug/ml", "value": "23 % of Control"},
      {"measurement": "Kinase activity, % of Control", "setting": "CDK6/cyclinD3; 50 ug/ml", "value": "7 % of Control"},
      {"measurement": "Kinase activity, % of Control", "setting": "Lyn; 1 ug/ml", "value": "97 % of Control"},
      {"measurement": "Kinase activity, % of Control", "setting": "Lyn; 5 ug/ml", "value": "40 % of Control"},
      {"measurement": "Kinase activity, % of Control", "setting": "Lyn; 25 ug/ml", "value": "4 % of Control"},
      {"measurement": "Kinase activity, % of Control", "setting": "Lyn; 50 ug/ml", "value": "2 % of Control"},
      {"measurement": "Kinase activity, % of Control", "setting": "CDK2/cyclinA; 1 ug/ml", "value": "107 % of Control"},
      {"measurement": "Kinase activity, % of Control", "setting": "CDK2/cyclinA; 5 ug/ml", "value": "96 % of Control"},
      {"measurement": "Kinase activity, % of Control", "setting": "CDK2/cyclinA; 25 ug/ml", "value": "57 % of Control"},
      {"measurement": "Kinase activity, % of Control", "setting": "CDK2/cyclinA; 50 ug/ml", "value": "6 % of Control"},
      {"measurement": "Kinase activity, % of Control", "setting": "MSSK1; 1 ug/ml", "value": "47 % of Control"},
      {"measurement": "Kinase activity, % of Control", "setting": "MSSK1; 5 ug/ml", "value": "11 % of Control"},
      {"measurement": "Kinase activity, % of Control", "setting": "MSSK1; 25 ug/ml", "value": "7 % of Control"},
      {"measurement": "Kinase activity, % of Control", "setting": "MSSK1; 50 ug/ml", "value": "5 % of Control"},
      {"measurement": "Kinase activity, % of Control", "setting": "PKA; 1 ug/ml", "value": "105 % of Control"},
      {"measurement": "Kinase activity, % of Control", "setting": "PKA; 5 ug/ml", "value": "109 % of Control"},
      {"measurement": "Kinase activity, % of Control", "setting": "PKA; 25 ug/ml", "value": "98 % of Control"},
      {"measurement": "Kinase activity, % of Control", "setting": "PKA; 50 ug/ml", "value": "21 % of Control"},
      {"measurement": "Kinase activity, % of Control", "setting": "Fer; 1 ug/ml", "value": "55 % of Control"},
      {"measurement": "Kinase activity, % of Control", "setting": "Fer; 5 ug/ml", "value": "20 % of Control"},
      {"measurement": "Kinase activity, % of Control", "setting": "Fer; 25 ug/ml", "value": "10 % of Control"},
      {"measurement": "Kinase activity, % of Control", "setting": "Fer; 50 ug/ml", "value": "1 % of Control"},
      {"measurement": "Kinase activity, % of Control", "setting": "HIPK2; 1 ug/ml", "value": "110 % of Control"},
      {"measurement": "Kinase activity, % of Control", "setting": "HIPK2; 5 ug/ml", "value": "98 % of Control"}
    ]}
  ]
}
